The record followed here is patent publication US20230060873A1, “COMPOUNDS AND METHODS FOR FORMING ION CHANNELS IN BIOLOGICAL MEMBRANES” (Washington University, priority 2021, published 2023).

Converted amounts (≈) assume the structure as drawn.

One experiment relates to Bacillus subtilis. Put plainly: Toxicity (MIC) of MAcBCE and MAkBCE compounds on B. subtilis. In kind it is cell-based. The note with it: B. subtilis 168 WT with pRB374, 12 h, up to 400 μM. On the procedure: XL1 blue strain Escherichia coli cells transformed with pET28a plasmid containing a kanamycin resistance gene, were grown at 37° C. in 2 mL of LB medium (Miller's LB broth, Research Products International) supplemented with 50 μg/mL of kanamycin, until the optical density (OD600) reached 0.6. The starting density of bacteria in the remainder of the experiments was a 1/100 dilution of this bacterial density, which was split into 4 mL cultures. A series of 400, 100, 10 and 5 mM stock solutions of each monoacylated benzo(crown-ether) (MAcBCE) and monoalkylated benzo(crown-ether) (MAkBCE) compounds in trifluoroethanol (TFE) were diluted by addition to the 4 mL cultures to reach final concentrations of 400, 200, 100, 50, 20, 15, 10, 5, 4, 3, 2 and 1 μM. The final TFE concentration was never higher than 0.1% v/v. Negative controls in the presence of TFE 0.1% v/v or in the absence of any treatment for each batch gave similar bacterial growth. The cultures were incubated at 37° C. with agitation for 12 h. Bacillus subtilis (168 WT) toxicity tests were carried out using an identical protocol, except they were transformed with the shuttle plasmid pRB374 in the presence of 5 μg/mL of kanamycin. […] Each compound was assayed a minimum of three times at each tested concentration.
The cytotoxicity of MABCE compounds was determined by measuring the MIC in liquid cultures of either the gram-negative bacteria Escherichia coli or the gram-positive bacteria Bacillus subtilis. […] As some curves overlap, portions of them are hidden. Values of MIC of 400 μM indicate that the value was either 400 μM, or it was higher and then was not determined. Each compound was assayed a minimum of three times at each different concentration. MICs for 5-A-4, 5-A-11, 6-A-11 and 6-O-11 could not be determined because the compounds were not soluble in TFE. While E. coli was not susceptible to any of the tested compounds at concentrations as high as 400 μM (data not shown), B. subtilis was susceptible to MABCE compounds bearing 15-crown-5 and 18-crown-6 scaffolds, but not to compounds containing a 12-crown-4 scaffold, as shown in FIG. 1.

The subject of another experiment is Escherichia coli. The experiment is described as follows: Toxicity (MIC) of dialkylated lariat ethers on E. coli. In kind it is cell-based. The note with it: E. coli XL1 blue, 12 h, visual turbidity, read-out: minimum inhibitory concentration (MIC). On the procedure: The cyto-toxicity was determined by measuring the minimum inhibitory concentrations (MIC) for this series of dialkylated lariat ethers in the Gram-negative bacteria Escherichia coli, the Gram-positive bacteria Bacillus subtilis, and human embryonic kidney (HEK293T) cells.
On bacteria. XL1 blue strain Escherichia coli cells transformed with a pET28a plasmid (which contains a kanamycin resistance gene) were grown at 37° C. in 2 mL of LB medium (Miller's LB broth, Research Products International) supplemented with 50 μg/mL of kanamycin until the optical density (600 nm) reached 0.600. The starting density of bacteria in the remainder of the experiments was a 1/100 dilution of this bacterial density, which was split into 4 mL cultures. A series of 400, 100, 10 and 5 mM stock solutions of each dialkylated diaza(18-crown-6) compounds in trifluoroethanol (TFE) were diluted by adding to the 4 mL cultures until final concentrations of 400, 200, 100, 50, 20, 15, 10, 5, 4, 3, 2 and 1 μM were reached, with the final TFE concentration never >0.1% v/v. Negative controls in the presence of TFE 0.1% v/v or the absence of any treatment were done for each batch. The cultures were incubated at 37° C. with agitation for 12 h. Bacillus subtilis (168 WT) toxicity tests were carried out using an identical protocol, except for the addition of the antibiotic. […]

`CCCCCCCCCCc1ccc2c(c1)OCCOCCOCCOCCOCCO2` [Compound 6-A-10, 18-decyl-2,3,5,6,8,9,11,12,14,15-decahydrobenzo[b][1,4,7,10,13,16]hexaoxacyclooctadecine]: in the experiment with Bacillus subtilis, the “toxicity / susceptibility of B. subtilis (MIC, FIG. 1)” value was “most toxic”. On to `CCCCCCCCCC(=O)c1ccc2c(c1)OCCOCCOCCOCCOCCO2` [Compound 6-O-10, 1-(2,3,5,6,8,9,11,12,14,15-decahydrobenzo[b][1,4,7,10,13,16]hexaoxacyclooctadecin-18-yl)decan-1-one], for which the “toxicity / susceptibility of B. subtilis (MIC, FIG. 1)” value in the experiment on Bacillus subtilis is on record as “most toxic”. `CCCCCCCCCCN1CCOCCOCCN(CCCCCCCCCC)CCOCCOCC1` [LEC10, Didecyl diaza(18-crown-6)]: the MIC in the experiment on Escherichia coli was 10 µM (≈ 5.43 µg/mL).
